Among the targets are Aurora kinase B (Homo sapiens, UniProt Q96GD4); Myosin-14 (Homo sapiens, UniProt Q7Z406); Obg-like ATPase 1 (Homo sapiens, UniProt Q9NTK5).
Test [1] deals with DnaJ homolog subfamily A member 1 (Homo sapiens, UniProt P31689).
The target of test [2] is G protein-coupled receptor kinase 6 (Homo sapiens, UniProt P43250).
Test [3] concerns the target T1, Mitogen-activated protein kinase kinase kinase kinase 2 (Homo sapiens, UniProt Q12851).
T1 sequence (Q12851 whole entry): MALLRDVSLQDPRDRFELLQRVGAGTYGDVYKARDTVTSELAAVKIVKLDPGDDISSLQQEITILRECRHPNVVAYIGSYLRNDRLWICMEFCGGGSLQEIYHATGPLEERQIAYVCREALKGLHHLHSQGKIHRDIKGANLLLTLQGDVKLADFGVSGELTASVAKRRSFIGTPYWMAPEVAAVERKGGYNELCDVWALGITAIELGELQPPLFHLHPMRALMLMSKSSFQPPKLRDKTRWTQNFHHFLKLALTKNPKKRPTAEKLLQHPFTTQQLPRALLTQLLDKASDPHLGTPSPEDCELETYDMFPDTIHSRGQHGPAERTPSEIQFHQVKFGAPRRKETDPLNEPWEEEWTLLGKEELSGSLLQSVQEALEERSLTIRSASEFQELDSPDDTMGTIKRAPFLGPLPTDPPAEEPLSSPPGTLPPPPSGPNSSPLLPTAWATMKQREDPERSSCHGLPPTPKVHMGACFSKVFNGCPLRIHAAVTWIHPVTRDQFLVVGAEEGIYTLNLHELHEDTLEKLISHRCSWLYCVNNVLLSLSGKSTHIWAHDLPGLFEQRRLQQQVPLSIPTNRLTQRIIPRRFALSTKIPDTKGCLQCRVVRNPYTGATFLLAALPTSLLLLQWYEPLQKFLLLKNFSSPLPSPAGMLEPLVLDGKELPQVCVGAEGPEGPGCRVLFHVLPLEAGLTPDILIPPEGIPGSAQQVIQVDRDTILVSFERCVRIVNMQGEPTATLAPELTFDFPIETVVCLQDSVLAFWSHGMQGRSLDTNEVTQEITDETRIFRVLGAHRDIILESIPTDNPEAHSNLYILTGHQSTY

Test [4] addresses Mitogen-activated protein kinase 3 (Homo sapiens, UniProt P27361).
Test [5] has as its target NADH dehydrogenase [ubiquinone] 1 alpha subcomplex subunit 13 (Homo sapiens, UniProt Q9P0J0).
The target in test [6] is T2, Serine/threonine-protein kinase NLK (Homo sapiens, UniProt Q9UBE8).
T2 sequence (Q9UBE8 whole entry): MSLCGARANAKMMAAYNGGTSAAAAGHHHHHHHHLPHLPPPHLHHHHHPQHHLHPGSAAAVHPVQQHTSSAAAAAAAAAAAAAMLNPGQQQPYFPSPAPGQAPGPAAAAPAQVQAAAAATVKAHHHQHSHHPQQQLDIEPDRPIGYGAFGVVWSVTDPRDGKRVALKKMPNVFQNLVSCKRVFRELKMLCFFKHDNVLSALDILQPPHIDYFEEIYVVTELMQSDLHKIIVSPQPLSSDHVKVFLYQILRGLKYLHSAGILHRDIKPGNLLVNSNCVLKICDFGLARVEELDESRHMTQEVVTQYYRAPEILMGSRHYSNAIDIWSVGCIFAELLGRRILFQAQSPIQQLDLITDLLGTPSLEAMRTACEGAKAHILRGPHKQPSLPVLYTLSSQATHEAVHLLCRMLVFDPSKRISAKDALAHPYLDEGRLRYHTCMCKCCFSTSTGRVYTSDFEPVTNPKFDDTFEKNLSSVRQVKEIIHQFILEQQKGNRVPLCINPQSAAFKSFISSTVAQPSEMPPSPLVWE

For test [7], the target named is T3, Ribosyldihydronicotinamide dehydrogenase [quinone] (Homo sapiens, UniProt P16083).
T3 sequence (P16083 whole entry): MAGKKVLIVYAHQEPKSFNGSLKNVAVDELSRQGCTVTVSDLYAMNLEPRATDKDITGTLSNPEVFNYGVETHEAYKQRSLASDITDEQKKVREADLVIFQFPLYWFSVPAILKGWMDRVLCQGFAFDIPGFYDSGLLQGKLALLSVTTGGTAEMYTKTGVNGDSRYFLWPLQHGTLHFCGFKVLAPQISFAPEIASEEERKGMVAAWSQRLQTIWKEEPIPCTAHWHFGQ

The target in test [8] is Serine/threonine-protein kinase PAK 4 (Homo sapiens, UniProt O96013).
Test [9] concerns the target 26S proteasome regulatory subunit 6B (Homo sapiens, UniProt P43686).
Test [10] concerns the target Protein-tyrosine kinase 2-beta (Homo sapiens, UniProt Q14289).
Test [11] concerns the target T4, Serine/threonine-protein kinase STK11 (Homo sapiens, UniProt Q15831).
T4 sequence (Q15831 whole entry): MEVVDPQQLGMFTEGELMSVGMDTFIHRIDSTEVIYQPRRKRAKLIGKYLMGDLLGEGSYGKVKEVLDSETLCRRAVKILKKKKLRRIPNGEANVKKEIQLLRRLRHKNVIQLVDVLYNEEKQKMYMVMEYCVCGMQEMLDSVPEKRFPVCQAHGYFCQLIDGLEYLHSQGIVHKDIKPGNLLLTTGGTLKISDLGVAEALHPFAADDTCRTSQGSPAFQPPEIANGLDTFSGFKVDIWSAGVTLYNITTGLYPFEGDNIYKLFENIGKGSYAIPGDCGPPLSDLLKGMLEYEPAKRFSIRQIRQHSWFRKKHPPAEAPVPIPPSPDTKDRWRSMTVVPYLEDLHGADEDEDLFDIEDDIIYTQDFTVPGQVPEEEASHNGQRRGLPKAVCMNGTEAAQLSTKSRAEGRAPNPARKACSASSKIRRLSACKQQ

Test [12] concerns the target DNA topoisomerase 2-alpha (Homo sapiens, UniProt P11388).
For test [13], the target named is Serine/threonine-protein kinase MRCK gamma (Homo sapiens, UniProt Q6DT37).

Activity calls are given as the source filed them.
Also: in the data inactive means no Kd found up to 30 µM.

Obg-like ATPase 1, sequence (Q9NTK5 whole entry, looked up): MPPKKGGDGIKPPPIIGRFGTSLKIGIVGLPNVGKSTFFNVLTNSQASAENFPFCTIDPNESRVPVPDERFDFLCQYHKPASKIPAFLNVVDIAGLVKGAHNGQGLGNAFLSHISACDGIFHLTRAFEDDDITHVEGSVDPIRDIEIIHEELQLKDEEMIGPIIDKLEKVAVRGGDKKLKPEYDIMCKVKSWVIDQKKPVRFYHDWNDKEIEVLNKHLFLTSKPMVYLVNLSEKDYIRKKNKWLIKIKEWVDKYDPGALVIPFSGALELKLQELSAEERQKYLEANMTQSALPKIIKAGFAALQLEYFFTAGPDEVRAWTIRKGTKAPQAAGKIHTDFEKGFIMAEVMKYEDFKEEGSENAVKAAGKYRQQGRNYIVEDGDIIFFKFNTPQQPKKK
Mitogen-activated protein kinase 3, sequence (P27361 whole entry): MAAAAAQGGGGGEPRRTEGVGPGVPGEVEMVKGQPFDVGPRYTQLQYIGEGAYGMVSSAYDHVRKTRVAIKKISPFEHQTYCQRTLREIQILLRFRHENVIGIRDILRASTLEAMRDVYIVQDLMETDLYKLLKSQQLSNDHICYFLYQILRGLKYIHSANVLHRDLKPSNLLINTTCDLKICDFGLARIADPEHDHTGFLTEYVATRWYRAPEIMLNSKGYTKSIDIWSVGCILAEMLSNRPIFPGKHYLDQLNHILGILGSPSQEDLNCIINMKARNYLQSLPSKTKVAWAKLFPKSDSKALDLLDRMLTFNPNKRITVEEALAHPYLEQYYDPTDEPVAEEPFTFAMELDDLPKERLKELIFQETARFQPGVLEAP
Myosin-14, sequence (Q7Z406 whole entry): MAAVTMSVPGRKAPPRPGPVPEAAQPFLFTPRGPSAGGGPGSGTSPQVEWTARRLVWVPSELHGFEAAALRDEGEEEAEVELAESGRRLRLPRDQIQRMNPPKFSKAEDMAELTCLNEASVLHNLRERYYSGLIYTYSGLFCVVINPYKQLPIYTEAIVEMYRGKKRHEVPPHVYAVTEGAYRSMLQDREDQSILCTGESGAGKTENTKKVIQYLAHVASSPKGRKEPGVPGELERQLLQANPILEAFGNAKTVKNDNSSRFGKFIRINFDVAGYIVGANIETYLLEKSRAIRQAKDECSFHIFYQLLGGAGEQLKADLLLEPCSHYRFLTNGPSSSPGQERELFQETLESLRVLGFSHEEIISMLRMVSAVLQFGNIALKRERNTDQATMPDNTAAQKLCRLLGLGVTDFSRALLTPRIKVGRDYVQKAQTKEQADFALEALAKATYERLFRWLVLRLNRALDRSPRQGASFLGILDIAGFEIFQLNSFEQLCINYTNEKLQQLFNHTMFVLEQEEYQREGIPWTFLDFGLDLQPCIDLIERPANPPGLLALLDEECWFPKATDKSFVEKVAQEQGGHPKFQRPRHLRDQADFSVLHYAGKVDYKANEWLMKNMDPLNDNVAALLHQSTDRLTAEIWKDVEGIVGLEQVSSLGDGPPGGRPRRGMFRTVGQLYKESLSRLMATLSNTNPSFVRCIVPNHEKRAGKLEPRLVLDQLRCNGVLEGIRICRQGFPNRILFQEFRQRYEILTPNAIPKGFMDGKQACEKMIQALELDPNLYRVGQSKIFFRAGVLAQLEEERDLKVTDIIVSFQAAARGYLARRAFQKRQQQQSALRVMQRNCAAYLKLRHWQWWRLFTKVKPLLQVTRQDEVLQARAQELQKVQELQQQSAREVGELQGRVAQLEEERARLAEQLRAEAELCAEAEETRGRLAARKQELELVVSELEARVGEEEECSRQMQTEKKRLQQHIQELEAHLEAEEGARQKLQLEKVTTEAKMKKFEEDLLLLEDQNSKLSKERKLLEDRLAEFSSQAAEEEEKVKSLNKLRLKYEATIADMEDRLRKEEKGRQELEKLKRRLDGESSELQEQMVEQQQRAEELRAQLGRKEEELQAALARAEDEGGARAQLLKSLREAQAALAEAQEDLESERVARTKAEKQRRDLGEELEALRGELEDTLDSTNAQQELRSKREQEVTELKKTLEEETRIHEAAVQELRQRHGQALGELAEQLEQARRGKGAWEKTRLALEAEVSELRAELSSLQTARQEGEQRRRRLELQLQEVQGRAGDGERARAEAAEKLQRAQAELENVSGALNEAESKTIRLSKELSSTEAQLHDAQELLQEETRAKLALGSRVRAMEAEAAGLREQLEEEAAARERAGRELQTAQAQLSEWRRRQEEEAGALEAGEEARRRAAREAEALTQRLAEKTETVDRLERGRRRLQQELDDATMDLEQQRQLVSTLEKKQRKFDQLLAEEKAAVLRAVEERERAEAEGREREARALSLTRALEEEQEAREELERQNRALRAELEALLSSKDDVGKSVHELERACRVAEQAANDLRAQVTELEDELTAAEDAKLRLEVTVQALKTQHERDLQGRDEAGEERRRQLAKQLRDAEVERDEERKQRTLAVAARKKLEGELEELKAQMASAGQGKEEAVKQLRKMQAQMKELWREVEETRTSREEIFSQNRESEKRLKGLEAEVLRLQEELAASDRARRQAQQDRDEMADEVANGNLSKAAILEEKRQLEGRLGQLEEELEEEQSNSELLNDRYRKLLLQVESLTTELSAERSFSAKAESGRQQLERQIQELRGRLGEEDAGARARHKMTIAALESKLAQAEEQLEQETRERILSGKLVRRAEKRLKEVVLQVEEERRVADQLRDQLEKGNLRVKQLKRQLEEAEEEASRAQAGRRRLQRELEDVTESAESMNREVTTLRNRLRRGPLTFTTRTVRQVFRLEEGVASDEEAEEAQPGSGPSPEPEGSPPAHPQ
Serine/threonine-protein kinase PAK 4, sequence (O96013 whole entry): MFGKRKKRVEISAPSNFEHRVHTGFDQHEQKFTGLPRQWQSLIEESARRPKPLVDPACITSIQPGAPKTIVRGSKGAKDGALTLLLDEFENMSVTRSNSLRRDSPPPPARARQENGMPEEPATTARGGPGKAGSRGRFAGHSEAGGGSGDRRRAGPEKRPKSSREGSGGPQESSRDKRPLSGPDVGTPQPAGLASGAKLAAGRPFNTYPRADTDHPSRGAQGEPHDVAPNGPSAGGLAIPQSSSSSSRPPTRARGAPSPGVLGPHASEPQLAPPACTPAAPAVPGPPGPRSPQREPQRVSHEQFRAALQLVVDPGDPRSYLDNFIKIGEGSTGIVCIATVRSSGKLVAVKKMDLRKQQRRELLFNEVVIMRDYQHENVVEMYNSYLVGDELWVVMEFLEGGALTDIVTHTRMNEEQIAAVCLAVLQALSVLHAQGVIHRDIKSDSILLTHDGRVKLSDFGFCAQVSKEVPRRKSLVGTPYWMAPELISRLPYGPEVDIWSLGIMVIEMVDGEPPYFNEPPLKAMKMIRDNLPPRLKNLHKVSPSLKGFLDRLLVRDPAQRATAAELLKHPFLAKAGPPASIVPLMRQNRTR
DNA topoisomerase 2-alpha, sequence (P11388 whole entry): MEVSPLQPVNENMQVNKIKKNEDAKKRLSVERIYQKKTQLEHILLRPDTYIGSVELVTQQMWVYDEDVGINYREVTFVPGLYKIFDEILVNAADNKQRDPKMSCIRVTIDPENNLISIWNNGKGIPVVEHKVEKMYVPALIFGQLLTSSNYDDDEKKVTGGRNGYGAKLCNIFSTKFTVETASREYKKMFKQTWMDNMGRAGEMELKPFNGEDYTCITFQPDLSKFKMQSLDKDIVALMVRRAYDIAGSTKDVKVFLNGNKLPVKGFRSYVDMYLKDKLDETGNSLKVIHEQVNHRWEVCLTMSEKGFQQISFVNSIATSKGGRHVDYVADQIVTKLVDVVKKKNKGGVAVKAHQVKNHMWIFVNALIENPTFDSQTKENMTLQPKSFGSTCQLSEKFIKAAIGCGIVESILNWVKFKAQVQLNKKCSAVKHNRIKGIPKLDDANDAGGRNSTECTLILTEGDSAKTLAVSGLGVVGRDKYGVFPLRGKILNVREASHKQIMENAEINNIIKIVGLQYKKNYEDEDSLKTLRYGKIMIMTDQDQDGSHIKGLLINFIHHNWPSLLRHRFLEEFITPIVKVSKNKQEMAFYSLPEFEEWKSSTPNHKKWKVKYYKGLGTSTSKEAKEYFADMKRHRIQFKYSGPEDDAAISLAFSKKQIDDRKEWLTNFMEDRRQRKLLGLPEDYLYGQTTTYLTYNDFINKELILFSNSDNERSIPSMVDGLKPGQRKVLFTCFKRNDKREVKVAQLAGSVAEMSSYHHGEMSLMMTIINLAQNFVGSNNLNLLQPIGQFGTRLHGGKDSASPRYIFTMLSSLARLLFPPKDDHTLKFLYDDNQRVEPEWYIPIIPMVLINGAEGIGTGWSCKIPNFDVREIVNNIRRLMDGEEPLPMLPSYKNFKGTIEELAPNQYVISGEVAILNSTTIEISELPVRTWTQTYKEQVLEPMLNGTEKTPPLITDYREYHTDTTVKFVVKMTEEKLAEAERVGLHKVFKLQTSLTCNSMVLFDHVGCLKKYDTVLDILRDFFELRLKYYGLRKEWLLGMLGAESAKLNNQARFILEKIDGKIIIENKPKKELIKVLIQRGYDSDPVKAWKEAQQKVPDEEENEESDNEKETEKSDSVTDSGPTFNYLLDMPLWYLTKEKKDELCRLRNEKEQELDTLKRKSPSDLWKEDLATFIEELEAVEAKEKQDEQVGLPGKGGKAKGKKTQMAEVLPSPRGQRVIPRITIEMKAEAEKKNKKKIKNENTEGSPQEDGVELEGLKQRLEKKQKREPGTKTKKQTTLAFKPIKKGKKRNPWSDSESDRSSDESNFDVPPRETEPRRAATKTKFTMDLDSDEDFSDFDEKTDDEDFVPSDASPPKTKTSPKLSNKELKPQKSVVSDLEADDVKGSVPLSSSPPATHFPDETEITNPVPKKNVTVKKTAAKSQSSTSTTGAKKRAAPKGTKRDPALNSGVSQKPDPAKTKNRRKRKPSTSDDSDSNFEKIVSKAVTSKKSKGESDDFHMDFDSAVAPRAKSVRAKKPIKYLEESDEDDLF
NADH dehydrogenase [ubiquinone] 1 alpha subcomplex subunit 13, sequence (Q9P0J0 whole entry, one chain of several): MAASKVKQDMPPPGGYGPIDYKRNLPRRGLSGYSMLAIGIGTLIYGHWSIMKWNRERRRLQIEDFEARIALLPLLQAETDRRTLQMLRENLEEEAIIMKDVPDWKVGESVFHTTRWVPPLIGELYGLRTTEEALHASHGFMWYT

As to `CCn1cc(-c2ccnc3[nH]c(-c4cccc(CN(C)C)c4)cc23)c(-c2ccc(NC(=O)N(C)C)cc2)n1` [GSK-1070916], the Kd is 0.371 µM (active) at Aurora kinase B; > 30 µM (inactive) in test [1]; > 30 µM (inactive) in test [2]; > 30 µM (inactive) in test [3]; > 30 µM (inactive) in [4]; > 30 µM (inactive) at Myosin-14. Further, the Kd in test [5], in test [6], in test [7], in test [8], in [9] and in test [10] was > 30 µM (inactive) throughout. Further, the Kd in test [11] and in test [12] was > 30 µM (inactive) in each case.

As for `CNC(=O)c1nn(C)c2c1C(C)(C)Cc1cnc(Nc3ccc(N4CCN(C)CC4)cc3)nc1-2` [MILCICLIB], the Kd at Aurora kinase B is 7.54 µM; in test [13], > 30 µM (inactive); in test [1] it was > 30 µM (inactive); in test [2], > 30 µM (inactive); in [3] it was 14 µM (active); in test [4] it was > 30 µM (inactive). The Kd (at Myosin-14; in test [5]; in [6]; in test [7]; in test [8]; in test [9]) was > 30 µM (inactive) each time. The Kd in test [10] and in [11] was > 30 µM (inactive) throughout.

Turning to `CN(C[C@@H]1COCCO1)S(=O)(=O)Nc1ccc2ccc3ncc(-c4cnn(C)c4)cc3c(=O)c2c1` [MK-2461], the Kd (on Aurora kinase B; in test [13]; in test [1]; in [3]; in [4]; on Myosin-14) was > 30 µM (inactive) throughout. The Kd in test [5] is > 30 µM (inactive); in test [6], > 30 µM (inactive); in [7], 52.6 µM (active); on Obg-like ATPase 1 it was > 30 µM (inactive); in test [8], > 30 µM (inactive); in test [9], > 30 µM (inactive). Further, the Kd in test [10], in [11] and in [12] was > 30 µM (inactive) each time.

Turning to `NC(=O)c1c(OCc2c(F)cc(Br)cc2F)nsc1NC(=O)NCCCCN1CCCC1` [OSI-632], the Kd (in test [13]; in test [1]; in test [2]; in test [4]; on Myosin-14; in [5]) was > 30 µM (inactive) throughout. For the same molecule, the Kd in test [6], in [7], in test [9], in test [11] and in [12] was > 30 µM (inactive) in each case.

Turning to `CCOc1cc2ncc(C#N)c(Nc3ccc(F)c(Cl)c3)c2cc1NC(=O)/C=C/CN(C)C` [PELITINIB], the Kd on Aurora kinase B was > 30 µM (inactive); in test [13] it was > 30 µM (inactive); in [1] it was > 30 µM (inactive); in [3] it was 2.28 µM (active); in [4], > 30 µM (inactive); on Myosin-14, > 30 µM (inactive). Further, the Kd (in [5]; in test [6]; in [7]; at Obg-like ATPase 1; in test [8]; in test [9]) was > 30 µM (inactive) in each case. Besides, the Kd in test [10], in test [11] and in test [12] was > 30 µM (inactive) each time.

In the case of `O=c1[nH]ccc2cc(OC3CCNCC3)ccc12` [SAR-407899 FREE BASE], the Kd (on Aurora kinase B; in test [13]; in test [1]; in [3]; in [4]; at Myosin-14) was > 30 µM (inactive) in each case. Moreover, the Kd (in test [5]; in test [6]; in test [7]; at Obg-like ATPase 1; in [8]; in test [9]) was > 30 µM (inactive) in each case. For the same molecule, the Kd in test [10], in [11] and in test [12] was > 30 µM (inactive) each time.

For the molecule `C[C@@H](NC(=O)c1ncnc(N)c1Cl)c1ncc(C(=O)Nc2cc(C(F)(F)F)c(Cl)cn2)s1` [TOVORAFENIB], the Kd (on Aurora kinase B; in [13]; in [1]; in test [3]; in [4]; at Myosin-14) was > 30 µM (inactive) each time. Besides, the Kd (in test [5]; in test [6]; in [7]; on Obg-like ATPase 1; in [8]; in test [9]) was > 30 µM (inactive) each time. Besides, the Kd in [10], in [11] and in test [12] was > 30 µM (inactive) in each case.

Turning to `CC(C)c1cc(CNc2nc(Nc3cc(C4CC4)[nH]n3)cc(N3CCN(C)CC3)n2)on1` [XL-228], the Kd at Aurora kinase B is 0.004 µM (active); in test [1], > 30 µM (inactive); in test [2] it was > 30 µM (inactive); in [3], 0.352 µM (active); in test [4], > 30 µM (inactive); at Myosin-14 it was > 30 µM (inactive). In addition, the Kd in test [5] is > 30 µM (inactive); in test [6], > 30 µM (inactive); in [7] it was > 30 µM (inactive); in test [8], 50.4 µM; in test [9], > 30 µM (inactive); in test [10], 0.118 µM (active). In addition, the Kd in test [11] is 3.08 µM; in test [12], > 30 µM (inactive).

Broadly, the Kd is the constant that tells how readily two partners part at equilibrium.
